# Calls of active or inactive are those of the source. No cut-off for these calls is given here.
# Tests used:
# [1] = Toxicity in renal carcinoma xenografted C57BL/6 mouse assessed as effect on visceral coefficient of lung at 0.8 mg/kg, ip; type: organism-based; settings: in vivo
# [2] = Hepatotoxicity in renal carcinoma xenografted C57BL/6 mouse assessed as fold increase in plasma ALT at 0.8 mg/kg, ip; type: toxicity, organism-based; settings: in vivo
# [3] = Toxicity in HCD-fed C57BL/6 mouse assessed as body weight loss at 0.8 mg/kg, ip measured on day 28; type: organism-based; settings: in vivo
# [4] = Toxicity in HCD-fed C57BL/6 mouse assessed as fold increase in ALT level at 0.8 mg/kg, ip; type: organism-based; settings: in vivo
# [5] = species on record: Mus musculus; assay: Effect on bile acid homeostasis in HCD-fed C57BL/6 mouse assessed as change in Ppar-alpha mRNA expression by RT-qPCR analysis; type: functional
# [6] = Toxicity in renal carcinoma xenografted C57BL/6 mouse kidney assessed as change in BUN level at 0.8 mg/kg, ip; type: organism-based; settings: in vivo
# [7] = system: HepG2; assay: Induction of apoptosis in human HepG2 cells assessed as change in caspase 3 protein expression at 1 to 5 uM after 48 hrs; type: functional, cell-based; settings: dose 1-5 µM
# [8] = Hepatotoxicity in renal carcinoma xenografted C57BL/6 mouse assessed as liver swelling at 0.8 mg/kg, ip; type: toxicity, organism-based; settings: in vivo
# [9] = Toxicity in mouse assessed as death at 10 mg/kg, po after 45 mins; type: organism-based; settings: in vivo, 0.75 h
# [10] = system: Mus musculus; assay: Induction of HCD-induced cholestasis in C57BL/6 mouse assessed as fold increase in liver LDL-cholesterol level at 0.8 mg/kg, ip; type: organism-based; settings: in vivo
# [11] = species on record: Mus musculus; assay: Effect on bile acid homeostasis in HCD-fed C57BL/6 mouse assessed as change in Ugt1a1 mRNA expression by RT-qPCR analysis; type: functional
# [12] = Hepatotoxicity in renal carcinoma xenografted C57BL/6 mouse assessed as appearance of pyknotic nucleus at 0.8 mg/kg, ip by histological analysis; type: toxicity, organism-based; settings: in vivo
# [13] = species on record: Mus musculus; assay: Effect on bile acid homeostasis in Chow diet-fed C57BL/6 mouse assessed as change in Car protein expression; type: functional
# [14] = Hepatotoxicity in renal carcinoma xenografted C57BL/6 mouse assessed as white discoloration of liver at 0.8 mg/kg, ip; type: toxicity, organism-based; settings: in vivo
# [15] = Toxicity in renal carcinoma xenografted C57BL/6 mouse kidney assessed as change in CRE level at 0.8 mg/kg, ip; type: organism-based; settings: in vivo
# [16] = system: HepG2; assay: Induction of mitochondrial membrane potential loss in human HepG2 cells assessed as intact mitochondrial membrane potential at 5 uM after 48 hrs by TMRM dye based flow cytometric analysis (reference value: 74.2%); type: cell-based; settings: hepg2, 48 h
# [17] = Effect on bile acid homeostasis in HCD-fed C57BL/6 mouse assessed as down regulation of Ost-alpha mRNA expression by RT-qPCR analysis; type: functional
# [18] = Induction of LDLR mRNA level in human HepG2 cells assessed as fold increase in LDLR expression at 1 uM by RT-qPCR analysis; type: functional
# [19] = Hepatotoxicity in renal carcinoma xenografted C57BL/6 mouse assessed as fold increase in plasma AST at 0.8 mg/kg, ip; type: toxicity, organism-based; settings: in vivo
# [20] = Toxicity in renal carcinoma xenografted C57BL/6 mouse assessed as effect on visceral coefficient of spleen at 0.8 mg/kg, ip; type: organism-based; settings: in vivo
# [21] = species on record: Mus musculus; assay: Effect on bile acid homeostasis in HCD-fed C57BL/6 mouse assessed as change in Bsep mRNA expression by RT-qPCR analysis; type: functional
# [22] = system: Mus musculus; assay: Induction of hepatic pathological changes in normal chow diet fed C57BL/6 mouse at 0.8 mg/kg, ip; type: organism-based; settings: in vivo
# [23] = species on record: Mus musculus; assay: Effect on bile acid homeostasis in HCD-fed C57BL/6 mouse assessed as change in Mrp2 mRNA expression by RT-qPCR analysis; type: functional
# [24] = Toxicity in renal carcinoma xenografted C57BL/6 mouse assessed as effect on visceral coefficient of liver at 0.8 mg/kg, ip; type: organism-based; settings: in vivo
# [25] = Toxicity in renal carcinoma xenografted C57BL/6 mouse assessed as effect on visceral coefficient of heart at 0.8 mg/kg, ip; type: organism-based; settings: in vivo
# [26] = Down regulation of SHP mRNA level in human HepG2 cells at 5 uM by RT-qPCR analysis; type: functional
# [27] = Effect on bile acid homeostasis in HCD-fed C57BL/6 mouse assessed as reversal of LXRbeta mRNA upregulation by RT-qPCR analysis; type: functional
# [28] = Induction of Cholesterol accumulation in human HepG2 cells assessed as fold increase in LDL-cholesterol level at 5 uM after 48 hrs; type: functional
# [29] = Hepatotoxicity in renal carcinoma xenografted C57BL/6 mouse assessed as liver necrosis at 0.8 mg/kg, ip by histological analysis; type: toxicity, organism-based; settings: in vivo
# [30] = Hepatotoxicity in renal carcinoma xenografted C57BL/6 mouse assessed as effect on body weight at 0.8 mg/kg, ip; type: toxicity, organism-based; settings: in vivo
# [31] = Down regulation of Cyp7a1 mRNA expression level in human HepG2 cells at 1 uM by RT-qPCR analysis; type: functional
# [32] = system: Mus musculus; assay: Induction of histopathological changes in HCD-fed C57BL/6 mouse assessed as striking subcapsular foci at 0.8 mg/kg, ip; type: organism-based; settings: in vivo
# [33] = system: HepG2; assay: Induction of apoptosis in human HepG2 cells assessed as necrotic cells at 5 uM measured after 48 hrs by Annexin-V-FITC/propidium iodide staining based flow cytometry (reference value: 0 %); type: functional
# [34] = system: Mus musculus; assay: Reversal of HCD-induced LXRalpha activation in C57BL/6 mouse assessed as decrease in LXRalpha protein level at 0.8 mg/kg, ip; type: functional; set-up: scale not given: the % may be the effect or the level left
# [35] = system: HepG2; assay: Induction of calcium signal in human HepG2 cells at 5 uM by Fluo-4AM dye based fluorescence assay; type: functional, cell-based
# [36] = Effect on bile acid homeostasis in HCD-fed C57BL/6 mouse assessed as reduction in Ntcp-mRNA expression by RT-qPCR analysis; type: functional; set-up: scale not given: the % may be the effect or the level left
# [37] = system: Mus musculus; assay: Induction of HCD-induced cholestasis in C57BL/6 mouse assessed as lipid accumulation in liver at 0.8 mg/kg, ip; type: functional, organism-based
# [38] = Effect on bile acid homeostasis in HCD-fed C57BL/6 mouse assessed as down regulation of Oatp1 mRNA expression by RT-qPCR analysis; type: functional
# [39] = system: HepG2; assay: Induction of apoptosis in human HepG2 cells assessed as late apoptotic cells at 5 uM measured after 48 hrs by Annexin-V-FITC/propidium iodide staining based flow cytometry (reference value: 0 %); type: functional
# [40] = Effect on bile acid homeostasis in HCD-fed C57BL/6 mouse assessed as inhibition of Cyp7a1 mRNA expression by RT-qPCR analysis; type: functional; set-up: scale not given: the % may be the effect or the level left
# [41] = system: Mus musculus; assay: Induction of HCD-induced cholestasis in C57BL/6 mouse assessed as fold increase in plasma total bile acid level at 0.8 mg/kg, ip; type: functional
# [42] = Hepatotoxicity in renal carcinoma xenografted C57BL/6 mouse assessed as inflammatory infiltration at 0.8 mg/kg, ip by histological analysis; type: toxicity, organism-based; settings: in vivo
# [43] = Induction of LDLR mRNA level in human HepG2 cells assessed as fold increase in LDLR expression at 5 uM by RT-qPCR analysis; type: functional
compound,measurement,setting,value
C/C=C(\C)[C@H](O)[C@H](C)/C=C(C)/C=C/C/C(C)=C/Cc1nc(OC)c(OC)c(O)c1C [PIERICIDIN A],Activity,[1],Non-Toxic
same,fold change (FC),[2],2.6
same,Activity,[3],Toxic
same,fold change (FC),[4],3.7
same,Activity,[5],inactive
same,Activity,[6],Non-Toxic
same,Activity,[7],Toxic
same,Activity,[8],Non-Toxic
same,Activity,[9],Non-Toxic
same,fold change (FC),[10],2.2
same,Activity,[11],inactive
same,Activity,[12],Toxic
same,Activity,[13],inactive
same,Activity,[14],Non-Toxic
same,Activity,[15],Non-Toxic
same,Activity,[16],26.4%
same,Activity,[17],10%
same,fold change (FC),[18],2.7
same,fold change (FC),[19],1.6
same,Activity,[20],Non-Toxic
same,Activity,[21],inactive
same,Activity,[22],Non-Toxic
same,Activity,[23],inactive
same,Activity,[24],Non-Toxic
same,Activity,[25],Non-Toxic
same,Activity,[26],30%
same,Activity,[27],72%
same,fold change (FC),[28],2.7
same,Activity,[29],Toxic
same,Activity,[30],Non-Toxic
same,Activity,[31],27%
same,Activity,[32],Toxic
same,Activity,[33],0%
same,Activity,[34],72%
same,Activity,[35],Active
same,Activity,[36],60%
same,Activity,[37],Active
same,Activity,[38],66%
same,Activity,[39],0%
same,Activity,[40],14%
same,fold change (FC),[41],2.8
same,Activity,[42],Toxic
same,fold change (FC),[43],3.1

# Reference: ChEMBL document CHEMBL5034018, “LXR-Mediated Regulation of Marine-Derived Piericidins Aggravates High-Cholesterol Diet-Induced Cholesterol Metabolism Disorder in Mice” (J Med Chem, 2021)
